# Test results as given in publication PMC6694155, “PTPσ inhibitors promote hematopoietic stem cell regeneration” (Nature Communications, 2019).
# Several values for one entry are separate records, joined by “and”; a condition that tells them apart may be missing. Equal entries are not always repeated.
# How the values were obtained:
# BCL-XL in BM KSL cells = experiment: BCL-XL protein intracellular flow cytometry of BM KSL cells; type: cell-based, mouse; conditions: BM KSL cells, 24 hours following 300 cGy, 43 ng/ml BVD523
# Experimental: (§1) Intracellular flow cytometric analysis was performed on irradiated (300 cGy) or non-irradiated, sorted KSL cells after treatment with 1 μg/mL DJ001 or control (equal volumes of DMSO) for 24 h. At 24 h after irradiation, cells were fixed with 4% PFA for 10 min, followed by permeabilization using 0.25% saponin in PBS. Cells were washed again and stained with antibody at the recommended concentrations for 30 min at RT. Intracellular antibodies and phospho-flow antibodies used were as follows: FITC-conjugated anti-BCL-XL (Abcam, #26148, 1:100), active RAC1-GTP antibody (NewEast Biosciences, #26903, 1:100) and anti-PAK1 (phospho S144) + PAK2 (phospho S141) + PAK3 (phospho S154) antibody (Abcam, #40795, 1:100), and FITC-conjugated goat anti-rabbit IgG H&L (Abcam, #97050, 1:200).
# BM KSL cells [1] = experiment: CFC assay from 300 cGy-irradiated BM KSL cells, 3 day culture; type: cell-based, mouse; set-up: CFU-GM / BFU-E: unit not given here
# Experimental: CFC assays (colony-forming unit-granulocyte monocyte), burst-forming unit-erythroid, and CFU-GEMM were performed using MethoCult GF M3434 (Stemcell Technologies)[6]. […] Recombinant mouse SCF, Flt3 ligand, and TPO were purchased from R&D Systems. For competitive repopulation assays, BM cells were isolated from donor 10–12-week-old female CD45.2^+ mice. Recipient 10-week-old female CD45.1^+ B6.SJL mice were irradiated with 950 cGy TBI using a Cs137 irradiator and donor BM cells were administered via tail vein injection along with a competing dose of 1 × 10^5 non-irradiated host BM cells. Multilineage donor hematopoietic cell engraftment was measured in the PB by flow cytometry.
# p-PAK1 in BM KSL cells = experiment: p-PAK1 phospho-flow cytometry of BM KSL cells; type: cell-based, mouse; conditions: BM KSL cells, DJ001 + 6 μg/mL EHT1864
# Experimental: as §1
# BM KSL cells [2] = experiment: Annexin V/7AAD apoptosis assay of BM KSL cells from mice 24 h post 500 cGy TBI; type: in vivo, mouse
# Experimental: (§2) Eight- to ten-week-old female C57BL/6 mice were irradiated with 500 cGy TBI followed by subcutaneous injections of 5 mg/kg DJ001 or vehicle, or 5 mg/kg DJ001 plus 40 mg/kg EHT1864. Twenty four hours after irradiation, mice were killed to collect BM cells for Annexin V apoptosis analysis. BM cells were stained with APC-Cy7-conjugated anti-mouse Sca1 (BD Biosciences, #560654, 1:100), PE-conjugated anti-ckit (BD Biosciences, #553355, 1:100), and V450 lineage cocktail (BD Biosciences, #561301, 1:10) antibodies for 30 min at 4 °C. Cells were then resuspended in 1× Annexin V binding buffer and then stained with FITC-conjugated anti-Annexin V antibody (BD Biosciences, #556547,1:50) and 7AAD antibody (BD Biosciences, #559925, 1:40)[68]. For in vitro human BM cell apoptosis assays, isolated human BM CD34^+ cells were plated into 96-well plates and then irradiated with 300 cGy. Immediately after irradiation, cells were treated with 5 μg/mL DJ001 or vehicle for 24 h and then collected for Annexin V cell apoptosis analysis. For cell cycle analysis, BM KSL cells were irradiated at 300 cGy and then treated with 1 μg/mL DJ001 or vehicle for 36 h. Subsequently, cells were resuspended in 200 μL of PBS, fixed with 1 mL of ice-cold fixation solution (0.25% Saponin, 2.5% PFA, 2% fetal calf serum (FCS) in PBS), and incubated for 30 min on ice. Cells were washed in Saponin buffer (0.25% Saponin, 2% FCS in PBS) and resuspended in 200 μL of Saponin buffer containing 20 μL of FITC-conjugated anti-Ki67 antibody (BD Biosciences, #556026, 1:10) and 1 μL of RNase (Qiagen, #19101, 100 mg/mL). After 30 min of incubation, cells were washed in Saponin buffer and resuspended for flow analysis in 200 μL of Saponin buffer containing 5 μL 7AAD (BD Biosciences, #559925, 1:40).
# C57BL/6 mice = experiment: Survival study after 750 cGy TBI; type: in vivo, mouse; conditions: 750 cGy, systemic EHT1864
# Experimental: For survival studies, 10-week-old female C57BL/6 mice were irradiated with 750 cGy TBI, which is lethal for ~50% of C57BL/6 mice by day + 30 (LD50/30), using a Shepherd Cesium-137 irradiator. Twenty four hours post irradiation, mice were administered daily subcutaneous injections of 5 mg/kg DJ001 or DJ009, or vehicle in a volume of 100 μL for 10 days. DJ001 or DJ009 injections were prepared in PBS, 0.5% Tween 80, and 10% DMSO. Corresponding vehicle injections contained PBS, 10% DMSO, and 0.5% Tween 80. PB complete blood counts were measured using a Hemavet 950 instrument (Drew Scientific) at day + 10 post irradiation. For hematopoietic analysis, BM cells were collected at day + 10 post irradiation. To study whether DJ001 increased survival rates through activation of RAC signaling, the RAC inhibitor, EHT1864 (Selleckchem), was dissolved in PBS and administered intraperitoneally, 40 mg/kg every other day, to 750 cGy-irradiated mice until day + 10.
# BM KSL cells [3] = experiment: Cell cycle analysis (Ki67/7AAD) of BM KSL cells; type: cell-based, mouse; conditions: BM KSL cells following irradiation
# Experimental: as §2
# catalytic domain of PTPσ = system: catalytic domain of PTPσ; set-up: method as in PMID 23185579; conditions: cited from earlier work
structure (smiles),measurement,setting,value
"CC(C)Nc1cc(-c2c[nH]c(C(=O)N[C@H](CO)c3cccc(Cl)c3)c2)c(Cl)cn1 [BVD523, reference compound]",effect on DJ001-mediated increase in BCL-XL protein levels,BCL-XL in BM KSL cells,blocked DJ001-mediated increase in BCL-XL protein levels
same,effect on hematopoietic progenitor cell recovery following irradiation,"BM KSL cells [1]; DJ001 + 43 ng/mL BVD523, 300 cGy, day +3",abrogated hematopoietic progenitor cell recovery
"O=c1cc(CN2CCOCC2)occ1OCCCCCSc1ccnc2cc(C(F)(F)F)ccc12 [EHT1864, reference compound]",effect on DJ001-mediated phosphorylation of PAK1,p-PAK1 in BM KSL cells,abrogated DJ001-mediated phosphorylation of PAK1
same,Figure 3e: Annexin V/7AAD apoptosis of BM KSL cells,"BM KSL cells [2]; 24 h post 500 cGy TBI, individual mice",24.85 and 19.31 and 21.21 and 22.28
same,effect on DJ001-mediated anti-apoptotic effects on BM KSL cells,BM KSL cells [2]; irradiated mice,abrogated DJ001-mediated anti-apoptotic effects
same,effect on DJ001-mediated increase in survival of irradiated mice,C57BL/6 mice,completely blocked DJ001-mediated increase in survival
same,effect on DJ001-mediated CFC generation,"BM KSL cells [1]; BM KSL cells irradiated with 300 cGy in vitro, 6 µg/ml EHT1864",inhibited DJ001-mediated CFC generation
same,BFU-E,BM KSL cells [1]; Supplementary Figure 7d,1 and 2
same,CFU-GM,BM KSL cells [1]; Supplementary Figure 7d,9 and 6 and 11 and 10 and 12
same,effect on DJ001-mediated induction of cell cycle progression,BM KSL cells [3],suppressed DJ001-mediated induction of cell cycle progression
"COc1ccc2c(c1)/C(=C/c1cnc[nH]1)C(=O)N2 [SU9516, reference compound]",effect on DJ001-mediated induction of cell cycle progression,BM KSL cells [3],suppressed DJ001-mediated induction of cell cycle progression
"O=C(/C=C\Nc1cc([N+](=O)[O-])ccc1O)c1ccc(Cl)c(Cl)c1 [compound 5075, reference compound]",reported properties against the catalytic domain of PTPσ,catalytic domain of PTPσ,binding and inhibitory properties
